Columns and labels:
Test in all cases: Test D controlled growth environment herbicide test, pre- and postemergence
Assay type in all cases: in vivo
[1] = test system: barley, spring (spring barley, Hordeum vulgare)
Procedure, shortened: (§1)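 Rating is visual, 0–100 scale (100 = complete control), made against untreated plants 14–21 d after treatment in controlled growth conditions. Postemergence sprays went onto 1- to 4-leaf plants in peat medium; preemergence sprays onto silt loam after sowing; formulation included a surfactant.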

[2] = test system: blackgrass (Alopecurus myosuroides)
Procedure, shortened: as §1

[3] = test system: bluegrass (annual bluegrass, Poa annua)
Procedure, shortened: as §1

[4] = test system: buckwheat, wild (wild buckwheat, Polygonum convolvulus)
Procedure, shortened: as §1

[5] = test system: canarygrass (Phalaris minor)
Procedure, shortened: as §1

[6] = test system: chamomile (scentless chamomile, Matricaria inodora)
Procedure, shortened: as §1

[7] = test system: field violet (Viola arvensis)
Procedure, shortened: as §1

[8] = test system: foxtail, green (green foxtail, Setaria viridis)
Procedure, shortened: as §1

[9] = test system: oat, wild (wild oat, Avena fatua)
Procedure, shortened: as §1

[10] = test system: pigweed (Amaranthus retroflexus)
Procedure, shortened: as §1

[11] = test system: radish, wild (wild radish, Raphanus raphanistrum)
Procedure, shortened: as §1

[12] = test system: ryegrass, Italian (Italian ryegrass, Lolium multiflorum)
Procedure, shortened: as §1

[13] = test system: wheat, spring (spring wheat, Triticum aestivum)
Procedure, shortened: as §1

[14] = Postemergence, 31 g ai/ha, scale 0 to 100 (0 no effect, 100 complete control)
[15] = Postemergence, 125 g ai/ha, visual rating on scale 0 (no effect) to 100 (complete control), 14 to 21 d
[16] = Postemergence, 250 g ai/ha, scale 0 to 100 (0 no effect, 100 complete control)
[17] = Preemergence, 62 g ai/ha, scale 0 to 100 (0 no effect, 100 complete control)
[18] = Preemergence, 125 g ai/ha, scale 0 to 100 (0 no effect, 100 complete control)
[19] = Preemergence, 250 g ai/ha, scale 0 to 100 (0 no effect, 100 complete control)
[20] = postemergence, 62 g ai/ha, scale 0 to 100, 0 no effect, 100 complete control

CCOC(=O)Oc1c(C)nn(C)c(=O)c1-c1c(C)sc2ccc(C)cc12 [Compound 82]
Barley, Spring plant response rating [1, 14]: 0
Plant response rating, Barley, Spring [1, 15]: 0
Plant response rating, Barley, Spring [1, 16]: 5
Plant response rating (scale of 0 to 100), Barley, Spring ([1]; Preemergence, 31 g ai/ha): 0
Plant response rating, Barley, Spring [1, 17]: 0
Plant response rating, Barley, Spring [1, 18]: 0
Plant response rating, Barley, Spring [1, 19]: 10
Plant response rating, Barley, Spring [1, 20]: 5
Blackgrass plant response rating [2, 14]: 45
Plant response rating, Blackgrass [2, 15]: 75
Plant response rating, Blackgrass [2, 16]: 80
Plant response rating (scale of 0 to 100), Blackgrass ([2]; Preemergence, 31 g ai/ha): 70
Plant response rating, Blackgrass [2, 17]: 75
Plant response rating, Blackgrass [2, 18]: 75
Plant response rating, Blackgrass [2, 19]: 80
Plant response rating, Blackgrass [2, 20]: 70
Bluegrass plant response rating [3, 14]: 10
Plant response rating, Bluegrass [3, 15]: 30
Plant response rating, Bluegrass [3, 16]: 35
Plant response rating (scale of 0 to 100), Bluegrass ([3]; Preemergence, 31 g ai/ha): 15
Plant response rating, Bluegrass [3, 17]: 45
Plant response rating, Bluegrass [3, 18]: 65
Plant response rating, Bluegrass [3, 19]: 80
Plant response rating, Bluegrass [3, 20]: 20
Buckwheat, Wild plant response rating [4, 14]: 85
Plant response rating, Buckwheat, Wild [4, 15]: 100
Plant response rating, Buckwheat, Wild [4, 16]: 100
Plant response rating (scale of 0 to 100), Buckwheat, Wild ([4]; Preemergence, 31 g ai/ha): 35
Plant response rating, Buckwheat, Wild [4, 17]: 0
Plant response rating, Buckwheat, Wild [4, 18]: 15
Plant response rating, Buckwheat, Wild [4, 19]: 0
Plant response rating, Buckwheat, Wild [4, 20]: 100
Canarygrass plant response rating [5, 14]: 50
Plant response rating, Canarygrass [5, 15]: 75
Plant response rating, Canarygrass [5, 16]: 85
Plant response rating (scale of 0 to 100), Canarygrass ([5]; Preemergence, 31 g ai/ha): 75
Plant response rating (scale of 0 to 100), Canarygrass ([5]; Preemergence, 62 g ai/ha): 85
Plant response rating, Canarygrass [5, 18]: 90
Plant response rating, Canarygrass [5, 19]: 95
Plant response rating, Canarygrass [5, 20]: 55
Chamomile plant response rating [6, 14]: 90
Plant response rating, Chamomile [6, 15]: 100
Plant response rating, Chamomile [6, 16]: 100
Plant response rating (scale of 0 to 100), Chamomile ([6]; Preemergence, 31 g ai/ha): 100
Plant response rating (scale of 0 to 100), Chamomile ([6]; Preemergence, 62 g ai/ha): 100
Plant response rating, Chamomile [6, 18]: 100
Plant response rating, Chamomile [6, 19]: 100
Plant response rating, Chamomile [6, 20]: 100
Field Violet plant response rating [7, 14]: 95
Plant response rating, Field Violet [7, 15]: 100
Plant response rating, Field Violet [7, 16]: 100
Plant response rating (scale of 0 to 100), Field Violet ([7]; Preemergence, 31 g ai/ha): 100
Plant response rating (scale of 0 to 100), Field Violet ([7]; Preemergence, 62 g ai/ha): 90
Plant response rating, Field Violet [7, 18]: 95
Plant response rating, Field Violet [7, 19]: 100
Plant response rating, Field Violet [7, 20]: 100
Foxtail, Green plant response rating [8, 14]: 75
Plant response rating, Foxtail, Green [8, 15]: 85
Plant response rating, Foxtail, Green [8, 16]: 90
Plant response rating (scale of 0 to 100), Foxtail, Green ([8]; Preemergence, 31 g ai/ha): 35
Plant response rating (scale of 0 to 100), Foxtail, Green ([8]; Preemergence, 62 g ai/ha): 75
Plant response rating, Foxtail, Green [8, 18]: 90
Plant response rating, Foxtail, Green [8, 19]: 85
Plant response rating, Foxtail, Green [8, 20]: 80
Oat, Wild plant response rating [9, 14]: 90
Plant response rating, Oat, Wild [9, 15]: 95
Plant response rating, Oat, Wild [9, 16]: 95
Plant response rating (scale of 0 to 100), Oat, Wild ([9]; Preemergence, 31 g ai/ha): 80
Plant response rating (scale of 0 to 100), Oat, Wild ([9]; Preemergence, 62 g ai/ha): 85
Plant response rating, Oat, Wild [9, 18]: 95
Plant response rating, Oat, Wild [9, 19]: 95
Plant response rating, Oat, Wild [9, 20]: 90
Pigweed plant response rating [10, 14]: 90
Plant response rating, Pigweed [10, 15]: 100
Plant response rating, Pigweed [10, 16]: 100
Plant response rating (scale of 0 to 100), Pigweed ([10]; Preemergence, 31 g ai/ha): 100
Plant response rating (scale of 0 to 100), Pigweed ([10]; Preemergence, 62 g ai/ha): 100
Plant response rating, Pigweed [10, 18]: 100
Plant response rating, Pigweed [10, 19]: 100
Plant response rating, Pigweed [10, 20]: 100
Radish, Wild plant response rating [11, 14]: 25
Plant response rating, Radish, Wild [11, 15]: 50
Plant response rating, Radish, Wild [11, 16]: 60
Plant response rating (scale of 0 to 100), Radish, Wild ([11]; Preemergence, 31 g ai/ha): 65
Plant response rating (scale of 0 to 100), Radish, Wild ([11]; Preemergence, 62 g ai/ha): 60
Plant response rating, Radish, Wild [11, 18]: 60
Plant response rating, Radish, Wild [11, 19]: 100
Plant response rating, Radish, Wild [11, 20]: 20
Ryegrass, Italian plant response rating [12, 14]: 85
Plant response rating, Ryegrass, Italian [12, 15]: 90
Plant response rating, Ryegrass, Italian [12, 16]: 90
Plant response rating (scale of 0 to 100), Ryegrass, Italian ([12]; Preemergence, 31 g ai/ha): 75
Plant response rating (scale of 0 to 100), Ryegrass, Italian ([12]; Preemergence, 62 g ai/ha): 80
Plant response rating, Ryegrass, Italian [12, 18]: 90
Plant response rating, Ryegrass, Italian [12, 19]: 95
Plant response rating, Ryegrass, Italian [12, 20]: 85
Wheat, Spring plant response rating [13, 14]: 0
Plant response rating, Wheat, Spring [13, 15]: 0
Plant response rating, Wheat, Spring [13, 16]: 5
Plant response rating (scale of 0 to 100), Wheat, Spring ([13]; Preemergence, 31 g ai/ha): 0
Plant response rating (scale of 0 to 100), Wheat, Spring ([13]; Preemergence, 62 g ai/ha): 0
Plant response rating, Wheat, Spring [13, 18]: 15
Plant response rating, Wheat, Spring [13, 19]: 40
Plant response rating, Wheat, Spring [13, 20]: 0
